Assay results: patent US11174216B2, “Lipids that increase insulin sensitivity and methods of using the same” (Beth Israel Deaconess Medical Center, Inc., priority 2012, dated 2021)

Legend:
Human islets = experiment: Insulin release from primary human islet cells; assay type: cell-based; settings: 45 min
Protocol: Two human donors provided cells used in these studies. Donor 1 was a person, 5′0″, 157 lbs, with a BMI of 30.5, HbA1C was 5.8, who died from a stroke, but it was witnessed and they had no downtime. Islets were 80% pure and 95% viable. After arrival, islets were incubated overnight in human islet media before stimulation with glucose in presence and absence of 5-PAHSA (lipid A-5). Note 1 IU of Human Insulin=6 nmol=34.8 μg Insulin.
Human islets were divided into ten groups [100 islets per condition]
A] Low glucose [2.5 mM]; B] High glucose [20.0 mM]; C] Low glucose [2.5 mM]+2.5 μL/mL Methanol; D] High glucose [20.0 mM]+2.5 μL/mL Methanol; E] Low glucose+20 μM Lipid A-5; F] High glucose+20 μM Lipid A-5; G] Low glucose+50 μM Lipid A-5; H] High glucose+50 μM Lipid A-5.
Islets were cultured overnight in Human Islet media and next day incubated with KRB buffer for 4 h prior to glucose stimulation.
Following KRB incubation, islets were stimulated with glucose [2.5 mM & 20.0 mM] in the presence and absence of Lipid A-5 [20 & 50 μM] for 45 min
At the end of glucose stimulation the amount of insulin released [μ IU/mL] into the media was measured using Human Insulin ELISA kit. And the insulin content from the islets were extracted to express insulin released into the media as μ IU/mL/islet content. […]

purified CEL = target: T1, purified CEL (Homo sapiens, UniProt P19835); experiment: Hydrolysis of 9-PAHSA by purified CEL; assay type: biochemical; settings: micellar concentrations of NaTC
T1 construct: purchased R&D Systems
T1 sequence (P19835 21-753): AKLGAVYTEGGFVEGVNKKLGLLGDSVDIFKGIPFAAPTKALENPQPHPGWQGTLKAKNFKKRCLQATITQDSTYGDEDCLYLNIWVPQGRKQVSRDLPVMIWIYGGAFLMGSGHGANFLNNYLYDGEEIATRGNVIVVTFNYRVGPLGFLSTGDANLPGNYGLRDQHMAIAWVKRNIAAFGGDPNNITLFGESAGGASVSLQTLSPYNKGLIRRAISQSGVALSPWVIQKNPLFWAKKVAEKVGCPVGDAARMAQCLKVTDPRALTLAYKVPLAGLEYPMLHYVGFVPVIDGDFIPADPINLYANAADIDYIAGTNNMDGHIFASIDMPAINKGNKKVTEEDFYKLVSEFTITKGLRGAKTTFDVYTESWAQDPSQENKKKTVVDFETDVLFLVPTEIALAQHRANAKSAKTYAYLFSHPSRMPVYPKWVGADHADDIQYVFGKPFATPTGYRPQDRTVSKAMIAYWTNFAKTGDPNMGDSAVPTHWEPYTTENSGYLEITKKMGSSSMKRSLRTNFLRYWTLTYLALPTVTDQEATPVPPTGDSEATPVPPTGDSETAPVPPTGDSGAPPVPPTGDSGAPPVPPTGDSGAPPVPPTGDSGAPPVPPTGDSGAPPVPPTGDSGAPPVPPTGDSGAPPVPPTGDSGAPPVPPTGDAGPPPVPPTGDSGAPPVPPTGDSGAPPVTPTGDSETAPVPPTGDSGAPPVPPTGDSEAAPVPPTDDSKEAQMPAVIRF
Description: To confirm the identification of CEL as a FAHFA hydrolase, a small amount of purified enzyme (available commercially from R&D Systems) was used.

[1] = test system: carboxyl ester lipase (CEL)

Row | Structure (SMILES) | Glucose Stimulated Insulin Secretion (Human islets; human islets from Donor 1, 20 and 50 uM) | Glucose Stimulated Insulin Secretion (Human islets; human islets from Donor 2, 20 uM) | hydrolysis, measured by 9-HSA production (purified CEL) | hydrolysis by HEK293T lysates transfected with CEL, AADACL1 or CES3 [1]
1 | CCCCCCCCCCCCCCCC(=O)OC(CCCCCCCCCCCCC)CCCC(=O)O (stereo not shown) [5-PAHSA] | induces Glucose Stimulated Insulin Secretion | induces Glucose Stimulated Insulin Secretion | – | –
2 | CCCCCCCCCCCCCCCC(=O)OC(CCCCCCCCC)CCCCCCCC(=O)O (stereo not shown) [9-PAHSA, palmitoyl-9-hydroxystearic acid] | – | – | substantial hydrolysis | only CEL-transfected cell lysate was able to hydrolyze FAHFA above the level of background hydrolysis activity
